According to ChEMBL document CHEMBL3797073 (Bioorg Med Chem, 2016):
pIC50: −log10 of the molar value.

Experiments:
[1] = tested on: Rattus norvegicus; assay: Anticoagulant activity in Sprague-Dawley rat assessed as inhibition of arteriovenous thrombosis at 0.5 mg/ml administered 3 days prior to testing measured on day 4 relative to control; format: functional
[2] = molecular target: T1, Prothrombin (Homo sapiens, UniProt P00734); assay: Inhibition of human thrombin at 1 ug/ml preincubated for 10 mins followed by Ac-FVR-AMC substrate addition measured within 10 mins by fluorescence assay relative to control
[3] = molecular target: T1, Prothrombin; assay: Inhibition of human thrombin preincubated for 10 mins followed by Ac-FVR-AMC substrate addition measured within 10 mins by fluorescence assay; conditions: for pIC50: read-out: IC50; for IC50: read-out: pIC50 (converted)

Structure (SMILES)	inhibition (INH) [1] [%]	inhibition [2] [%]	pIC50 [3]	IC50 [3] [nM]
CCn1c(CNc2ccc(C(=N)N)cc2F)nc2cc(C(=O)N(CCC(=O)O)c3cccc(C)n3)ccc21	84.66	93.6	8.67	2.14
CCn1c(CNc2ccc(C(=N)N)cc2F)nc2cc(C(=O)N(CCC(=O)O)c3ccc(C)cc3)ccc21	–	88.2	–	–
Cn1c(CNc2ccc(C(=N)N)cc2)nc2cc(C(=O)N(CCC(=O)O)c3ccccn3)ccc21 [DABIGATRAN]	85.07	–	–	–
CCn1c(CNc2ccc(C(=N)N)cc2F)nc2cc(C(=O)N(CCC(=O)O)c3ccc(C)c(F)c3)ccc21	–	87.5	–	–
CCn1c(CNc2ccc(C(=N)N)cc2F)nc2cc(C(=O)N(CCC(=O)O)c3ccc(F)c(C)c3)ccc21	–	92.5	8.38	4.17
CCn1c(CNc2ccc(C(=N)N)cc2F)nc2cc(C(=O)N(CCC(=O)O)c3ccc(F)cc3F)ccc21	76.23	92.5	8.49	3.24
CCn1c(CNc2ccc(C(=N)N)cc2F)nc2cc(C(=O)N(CCC(=O)O)c3c(C)cccc3C)ccc21	–	92.5	8.74	1.82
CCn1c(CNc2ccc(C(=N)N)cc2F)nc2cc(C(=O)N(CCC(=O)O)c3cc(C)ccn3)ccc21	–	92	8.43	3.72
CCn1c(CNc2ccc(C(=N)N)cc2F)nc2cc(C(=O)N(CCC(=O)O)c3ccc(F)c(F)c3)ccc21	–	93.8	8.04	9.12
CCn1c(CNc2ccc(C(=N)N)cc2F)nc2cc(C(=O)N(CCC(=O)O)c3cc(F)cc(F)c3)ccc21	–	91.2	–	–
CCn1c(CNc2ccc(C(=N)N)cc2F)nc2cc(C(=O)N(CCC(=O)O)c3cc(C)cc(C)c3)ccc21	–	89	–	–
CCn1c(CNc2ccc(C(=N)N)cc2F)nc2cc(C(=O)N(CCC(=O)O)c3cc(C)ccc3C)ccc21	–	93	8.25	5.62
CCn1c(CNc2ccc(C(=N)N)cc2F)nc2cc(C(=O)N(CCC(=O)O)c3ccc(C)c(C)c3)ccc21	–	91.6	8.00	–
CCn1c(CNc2ccc(C(=N)N)cc2F)nc2cc(C(=O)N(CCC(=O)O)c3cccc(C)c3C)ccc21	–	93.2	8.31	4.9
CCn1c(CNc2ccc(C(=N)N)cc2F)nc2cc(C(=O)N(CCC(=O)O)c3ccc(C)cc3C)ccc21	–	91.9	8.14	7.24
CCn1c(CNc2ccc(C(=N)N)cc2F)nc2cc(C(=O)N(CCC(=O)O)c3cccc(C)c3)ccc21	–	92.8	8.26	5.5
